US6599907B1, “Cystic fibrosis medicaments” (University of Wales College of Medicine, priority 1999, dated 2003)
Like-named read-outs stand apart in the source and are kept apart here. Marks after values point to notes of the source that are not given here.

What was measured:
cyclic AMP = assay: Cyclic AMP content of acini (radioimmunoassay); format: cell-based, rat; conditions: for Cyclic AMP (pmol/mg protein), isoproterenol-stimulated: isoproterenol 10 μM alone or + PDE inhibitor (IBMX, Type III, Type IV 1 mM; Type V 0.2 mM), 5 min, n in parentheses
rat submandibular acini = assay: Mucin secretion from rat submandibular acini ([3H]-glucosamine labelled mucin release); conditions: for Mucin secretion % basal: wild type mucin secretion; for Mucin Secretion (% basal), isoproterenol-stimulated: isoproterenol 10 μM alone or + PDE inhibitor (IBMX, Type III, Type IV 1 mM; Type V 0.2 mM), 30 min, n in parentheses
PDE V = PDE V (Homo sapiens, UniProt O76074); assay: PDE V inhibition; format: biochemical
cyclic GMP = assay: Cyclic GMP content of acini (radioimmunoassay); format: cell-based, rat; conditions: for Cyclic GMP (fmol/mg protein), + Isoproterenol (10 μM) / Cyclic GMP (fmol/mg protein), No Isoproterenol: 5 min, IBMX, Types III, IV 1 mM, Type V 0.2 mM, mean±SEM (n)
CFTR [1] = conditions: acini containing CFTR antibody; 1 mM; 'has been shown'; cited from earlier work
CFTR [2] = assay: Correction of CFTR antibody-inhibited β-adrenergic stimulation of mucin secretion in rat submandibular acini; conditions: acini containing CFTR antibody; isoproterenol 10 μM + PDE inhibitor (Types III, IV 1 mM; Type V 0.2 mM); 30 min; compared with cpt-cyclic AMP 1 mM

Compound	cyclic AMP % basal (cyclic AMP)	Mucin secretion % basal (rat submandibular acini)	IC50 (PDE V; read-out: PDE V IC50) [nM]	cyclic GMP % basal (cyclic GMP)	IC50 (PDE V) [nM]	Cyclic AMP (pmol/mg protein), isoproterenol-stimulated (cyclic AMP)	Restored secretion, % of the secretion response seen in cells containing an equivalent amount of non-immune IgG (CFTR [1])	Mucin Secretion (% basal), isoproterenol-stimulated (rat submandibular acini)	Cyclic GMP (fmol/mg protein), + Isoproterenol (10 μM) (cyclic GMP)	Cyclic GMP (fmol/mg protein), No Isoproterenol (cyclic GMP)	Correction of the defective β-adrenergic secretory response (FIG. 1) (CFTR [2])	Cyclic AMP (pmol/mg protein), isoproterenol-stimulated (cyclic AMP; listed as Type V PDE inhibitor)
CCOc1ccccc1-c1nc2[nH]c(=O)[nH]c2c(=O)[nH]1 [j)]	100 % basal	160* % basal	1300	140* % basal	–	–	–	–	–	–	–	–
CCCOc1ccccc1-c1nc2[nH]cnc2c(=O)[nH]1 [a)]	100 % basal	120 % basal	–	140 % basal	–	–	–	–	–	–	–	–
CCCOc1ccccc1-c1nc2cnccc2c(=O)[nH]1 [b)]	600* % basal	180* % basal	–	130 % basal	550	–	–	–	–	–	–	–
CCCCOc1ccccc1-c1nc2cccnc2[nH]1 [g)]	160* % basal	200* % basal	750	110 % basal	–	–	–	–	–	–	–	–
CNc1ncc2c(=O)[nH]c(-c3ccccc3OC)nc2n1 [c)]	250* % basal	160* % basal	22000	90 % basal	–	–	–	–	–	–	–	–
COc1ccccc1-c1nc2cccnc2[nH]1 [d)]	600* % basal	200* % basal	34000	90 % basal	–	–	–	–	–	–	–	–
CC(C)Cn1c(=O)n(C)c(=O)c2[nH]cnc21 [IBMX, reference compound]	–	–	–	–	–	*1252.9 ± 129.6 (6) pmol/mg protein	approx. 75%	924 ± 290 (6) % basal	**55.6 ± 1.6 (8) fmol/mg protein	48.1 ± 5.2 (8) fmol/mg protein	–	–
C[C@@H]1CC(=O)NN=C1c1ccc(-n2ccc(=O)cc2)cc1 (racemic) [Type III, (R,S)-4,5-dihydro-6-[4-(1,4-dihydro-4-oxopyridin-1-yl)phenyl]-5-methyl-3(2H)-pyridazinone, reference compound]	–	–	–	–	–	*1009.6 ± 91.5 (6) pmol/mg protein	–	692 ± 238 (6) % basal	47.0 ± 1.8 (4) fmol/mg protein	39.3 ± 2.4 (3) fmol/mg protein	ineffective	–
CCCOc1ccccc1-c1nc2nc(NCC(C)O)ncc2c(=O)[nH]1 (stereo not drawn) [i)]	100 % basal	170* % basal	200	90 % basal	–	–	–	–	–	–	–	–
CCOc1ccccc1-c1nc2[nH]cnc2c(=O)[nH]1 [f)]	100 % basal	160* % basal	4500	110 % basal	–	–	–	–	–	–	–	–
O=c1[nH]c(-c2ccccc2O)nc2[nH]cnc12 [h)]	100 % basal	180* % basal	48000	110 % basal	–	–	–	–	–	–	–	–
CCCOc1ccccc1-c1nc2[nH]cnc2c(=O)[nH]1 [Type V, 1,7-dihydro-2-(2-propoxyphenyl)-6H-purin-6-one]	–	–	–	–	–	375.5 ± 95.8 (6) pmol/mg protein	–	755 ± 243 (6) % basal	**64.3 ± 3.6 (5) fmol/mg protein	*47.3 ± 2.5 (5) fmol/mg protein	as effective as cpt-cAMP	did not potentiate
CCCOc1ccccc1-c1nc2nc(N)ncc2c(=O)[nH]1 [e)]	350* % basal	170* % basal	650	130 % basal	–	–	–	–	–	–	–	–
COc1ccc(C2CNC(=O)C2)cc1OC1CCCC1 (stereo not drawn) [Type IV, 4-(3-cyclopentyloxy-4-methoxyphenyl)-2-pyrrolidinone, reference compound]	–	–	–	–	–	**1908.7 ± 150.8 (6) pmol/mg protein	–	708 ± 220 (6) % basal	45.2 ± 2.0 (4) fmol/mg protein	40.1 ± 1.5 (3) fmol/mg protein	as effective as cpt-cAMP	–
CC(C)NCC(O)c1ccc(O)c(O)c1 (stereo not drawn) [Isoproterenol, reference compound]	–	–	–	–	–	373.0 ± 84.0 (6) pmol/mg protein	–	785 ± 212 (6) % basal	45.2 ± 1.6 (4) fmol/mg protein	–	–	–
